# Assay results taken from patent US20240174618A1, “SUBSTITUTED (2-HETEROARYLOXYPHENYL)SULFONATES, SALTS THEREOF AND THEIR USE AS HERBICIDAL AGENTS” (Bayer Aktiengesellschaft, priority 2021, published 2024).
# Experiments:
# Assay type in all cases: in vivo
# [1] = test system: Kochia scoparia (KCHSC); test: B. Herbicidal post-emergence efficacy, KCHSC; conditions: for Post-emergence efficacy against KCHSC in %: rated visually after about 3 weeks; for Post-emergence efficacy against KCHSC: 1280 g/ha
# Method in brief: (§1)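 Weeds grown in sandy loam in greenhouse and sprayed at the one-leaf stage, 2–3 weeks after sowing, with WP or EC formulations plus 0.5% additive at 600 L/ha water. Injury rated visually versus untreated controls after about 3 weeks (100% = dead, 0% = like control); rates up to 1280 g/ha.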
# [2] = test system: Echinochloa crus-galli (ECHCG); test: A. Herbicidal pre-emergence efficacy, ECHCG; conditions: scored visually after about 3 weeks vs untreated controls
# Method in brief: (§2)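 Applied before emergence onto covering soil at rates of 1280 g/ha or less, using 600 L/ha spray water with 0.5% additive. Scoring: visual % efficacy after ~3 weeks, greenhouse.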
# [3] = test system: Stellaria media (STEME); test: A. Herbicidal pre-emergence efficacy, STEME
# Method in brief: as §2
# [4] = test system: Alopecurus myosuroides (ALOMY); test: A. Herbicidal pre-emergence efficacy, ALOMY; conditions: scored visually after about 3 weeks vs untreated controls
# Method in brief: as §2
# [5] = test system: Abutilon theophrasti (ABUTH); test: C. Herbicidal pre-emergence efficacy, ABUTH; conditions: scored after about 3 weeks
# Method in brief: (§3)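 Pre-emergence test: formulated compounds sprayed as aqueous suspension or emulsion with 0.5% additive at 600 l/ha onto soil covering sown seeds, at rates corresponding to 320 g/ha or less. After about 3 weeks in greenhouse, efficacy scored visually as percent versus untreated controls (100% = plants dead).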
# [6] = test system: Setaria viridis (SETVI); test: B. Herbicidal post-emergence efficacy, SETVI
# Method in brief: as §1
# [7] = test system: Amaranthus retroflexus (AMARE); test: E. Herbicidal post-emergence efficacy, AMARE
# Method in brief: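 Compounds applied at 320 g/ha or less as a foliar spray (600 l/ha, 0.5% additive) to one-leaf-stage greenhouse plants grown in sandy loam. Damage is visually scored in percent relative to untreated plants after about 3 weeks.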
# [8] = test system: Polygonum convolvulus (POLCO); test: C. Herbicidal pre-emergence efficacy, POLCO; conditions: scored after about 3 weeks
# Method in brief: as §3
Structure (SMILES),Post-emergence efficacy against KCHSC in % ([1]; 80 g/ha) [%],Post-emergence efficacy against KCHSC in % ([1]; 320 g/ha) [%],Post-emergence efficacy against KCHSC [1] [%],Pre-emergence efficacy against ECHCG ([2]; 80 g/ha) [%],Pre-emergence efficacy against ECHCG ([2]; 320 g/ha) [%],Pre-emergence efficacy against ECHCG ([2]; 1280 g/ha) [%],Pre-emergence efficacy against STEME ([3]; dosage 80 g/ha) [%],Pre-emergence efficacy against STEME ([3]; dosage 320 g/ha) [%],Pre-emergence efficacy against STEME ([3]; dosage 1280 g/ha) [%],Pre-emergence efficacy against ALOMY ([4]; 320 g/ha) [%],Pre-emergence efficacy against ALOMY ([4]; 1280 g/ha) [%],Pre-emergence efficacy against ABUTH ([5]; 80 g/ha) [%],Pre-emergence efficacy against ABUTH ([5]; 320 g/ha) [%],Post-emergence efficacy against SETVI ([6]; 320 g/ha) [%],Post-emergence efficacy against SETVI ([6]; 1280 g/ha) [%],Post-emergence efficacy against AMARE in % ([7]; application rate 80 g/ha) [%],Post-emergence efficacy against AMARE in % ([7]; application rate 320 g/ha) [%],Pre-emergence efficacy against POLCO ([8]; 80 g/ha) [%],Pre-emergence efficacy against POLCO ([8]; 320 g/ha) [%]
O=S(=O)(CCCC(F)(F)F)Oc1ccccc1Oc1ncc(Cl)cn1 [Example I-10],90,90,90,100,100,100,100,100,100,90,90,100,100,100,100,100,100,90,100
O=S(=O)(CCCCl)Oc1c(F)cccc1Oc1ncc(Cl)cn1 [Example I-14],100,100,100,100,100,100,100,100,100,90,100,90,100,90,100,100,100,90,100
O=S(=O)(CC1CC1)Oc1ccccc1Oc1ncc(Cl)cn1 [Example I-23],100,100,100,90,90,90,100,100,100,–,90,100,100,–,100,100,100,100,100
O=S(=O)(CCC(F)(F)F)Oc1c(Cl)cccc1Oc1ncc(Br)cn1 [Example I-32],100,100,100,–,–,100,–,90,90,–,90,90,100,90,100,100,100,–,100
O=S(=O)(CCC(F)(F)F)Oc1c(Cl)cccc1Oc1ncc(Cl)cn1 [Example I-38],–,90,90,–,90,100,100,100,100,–,100,100,100,–,90,100,100,100,100
O=S(=O)(CCCC(F)(F)F)Oc1c(Cl)cccc1Oc1ncc(Cl)cn1 [Example I-39],90,90,90,–,90,100,–,100,100,90,100,100,100,90,90,100,100,100,100
O=S(=O)(CCC(F)(F)F)Oc1c(F)cccc1Oc1ncc(Br)cn1 [Example I-40],90,90,90,100,100,100,–,100,100,90,100,100,100,90,90,100,100,100,100
O=S(=O)(CCCC(F)(F)F)Oc1c(F)cccc1Oc1ncc(Br)cn1 [Example I-41],90,90,90,–,100,100,100,100,100,–,100,100,100,90,90,100,100,100,100
O=S(=O)(CCC(F)(F)F)Oc1c(F)cccc1Oc1ncc(Cl)cn1 [Example I-48],90,90,90,90,90,90,90,100,100,90,90,100,100,90,90,100,100,100,100
O=S(=O)(CCCC(F)(F)F)Oc1c(F)cccc1Oc1ncc(Cl)cn1 [Example I-49],90,90,100,90,90,90,100,100,100,–,90,100,100,90,90,100,100,100,100
O=S(=O)(CC1CC(F)(F)C1)Oc1c(F)cccc1Oc1ncc(Cl)cn1 [Example I-53],90,90,90,100,100,100,100,100,100,–,100,100,100,90,90,100,100,100,100
